Reference: patent EP0171005A2, “Xanthinylmethylthiazolidines, process for their preparation and pharmaceutical compositions containing them” (BOEHRINGER BIOCHEMIA ROBIN S.p.A., priority 1984, dated 1986)
Like-named read-outs stand apart in the source and are kept apart here.

Legend:
[1] = system: trachea smooth muscle strips of Guinea pig contracted by methaco- line; test: Relaxation in vitro of trachea smooth muscle strips contracted by methacholine; details: Cavia porcellus, read-out: ED50 (the source's name)
Text: In particular these latter compounds of the invention are also characterized by pronounced ability to induce relaxation of the bronchial and tracheal smooth muscle.

[2] = system: anhaestetized guinea pigs; test: Konzett-Ressler test, resolution of histamine-induced bronchospasm; format: in vivo; details: intrajugular administration; bronchospasm induced by i.v. histamine
[3] = system: conscious mongrel dogs; test: Dog cough test (Stefko procedure, cough induced by electric stimulation of the trachea); format: in vivo
Method: (§1) The techniques described by Charlier et al. (Arch. Int. Pharmacodyn. 134, 306, 1961) and by Stefko et al. (J. Pharm. Exp. Therap., 108, 217, 1953), adapted with minor modifications, are used to investigate the antitussive properties of the compounds of the invention. Codeine phosphate is used as positive reference compound.
In the Stefko procedure, conscious mongrel dogs (15+3 kg body weight) are used; the compounds of the invention are tested for their ability to inhibit cough induced by electric stimulation.
Under general anesthesia, two insulated nichrome wires (0.4 mm diameter) are surgically implanted into the submucosa of the trachea.
About two days later, the dogs are placed in a sling and the exteriorized electrodes are connected to an electric stimulating device (such as Grass S 48 Mod.).
The stimulation parameters such as: delay 0.01 msec, duration 1 msec, frequency 30 Hz, are used.
An electrical stimulus of 1 sec is applied 10 times at 5 sec intervals in order to determine the minimum voltage necessary for eliciting reproducible cough responses. Then, tussive responses to the electrical stimuli are registered at 15, 30, 60, 90, 120, 150, 180, 240, 300 and 360 minutes after oral administration of the compounds of the invention.
The tussive responses are scored as follows: • 1: no response; 2: sigh or exaggerated expiration; • 3: marked cough; 4: one marked cough and one exaggerated expiration; 5: two marked coughs.
Six dogs are employed for each determination and the mean activity is calculated.
The inhibition percent of the cough response and the duration of activity are compared with codeine.

[4] = system: Guinea pigs; test: Guinea pig cough test (Charlier procedure, citric acid aerosol); format: in vivo; details: for ED50: Cavia porcellus, ip, 1 h; for delay of first cough stroke: delay corresponding to the ED50, i.p.
Method: as §1
According to the Charlier procedure, Guinea pigs are exposed to a citric acid aerosol (7.5%) and cough is recorded 60 minutes after the antitussive treatment by i.p. route. Male animals of 300-400 g body weight are used in all the experiments. Guinea pigs are placed in a perspex box (20x30x30 cm) connected to an aerosol compressor; the animals are subjected to a citric acid saturated atmosphere, 60 minutes after the i.p. injection of a compound of the invention (0.1 and 0.3 M solutions; 1 ml/kg).
The total number of cough strokes and the delay of the first cough are recorded during the first five minutes.
Five guinea pigs are used for each dose level and the results are compared with controls (vehicle treatment) and codeine phosphate 0.07 M solution (standard treatment).
ED and the corresponding delay of first cough stroke are calculated.
The data obtained by i.p. administration are confirmed by oral administration.

[5] = system: male New Zealand white rabbits; test: Mucus regulating properties in bronchitic rabbits (5% H2SO3 aerosol), sputum parameters as AUC; format: in vivo; details: for Fucose (mg/ml), AUC as a 100% compared to bronchitic controls / Galactose (mg/ml), AUC as a 100% compared to bronchitic controls / Mucus produc-tion (ml/kg), AUC as a 100% compared to bronchitic controls / Phospho-lipids (mg/ml), AUC as a 100% compared to bronchitic controls / Protein (mg/ml), AUC as a 100% compared to bronchitic controls / Sialic acid (mg/ml), AUC as a 100% compared to bronchitic controls / Viscosity (cps), AUC as a 100% compared to bronchitic controls: Table 2, oral, equimolecular amounts to S-carboxymethyl cysteine
Method: The mucus regulating properties of the compounds of the invention are investigated "in vivo" by means of experiments carried out on male New Zealand white rabbits. The animals are submitted to inhalation of a 5% H2S03 aqueous solution by aerosol (exposition of 3 hours a day for 3 alternate days), to induce a chronic bronchial inflammatory disease which causes a production of pathological sputum in the bronchial tree.
Aim of the experiments is to evaluate modifications of selective parameters such as dry weight of the sputum, viscosity, content in proteins, phospholipids, galactose, sialic acid and fucose, induced in this pathological sputum by pharmacological treatment with the compounds of the invention.
To this purpose, the sputum produced in the bronchial tree is collected daily, through a "T" shaped glass cannula, inserted in the trachea, before and after oral twice a day (9.00 a.m. and 4.00 p.m.) treatment with one of the compounds of the invention.
The schedule treatment procedure is shown in the following Schema 1: [drawing 23] where 0 indicates the day of implantation of the tracheal cannula; -7-5-3 indicate the days of H2S03 treatment (H); 1,2,3,4 indicate the days of oral administration of the compounds of the invention (T) and the time of mucus collection (M).
The mucus collected in day 1 in the morning is considered as a blank; 7 indicates the day of the animal sacrifice after the mucus collection.
The sputum samples are stored in the freezer (-20°C) until the investigation of biological and rheological parameters is carried out.
The samples are investigated for relative viscosity, measured at 37°C with a Brookfield viscometer (model LT VD) equipped with a 1,565° cone-plate, and aliquoted for biochemical analysis of protein, phospholipids, galactose, sialic acid and fucose contents. Dry weight of the mucus is also determined. For each parameter, cumulative data are referred to a seven days period after the beginning of the treatment and they are extrapolated using the AUC method (area under curve) calculated by the trapezoidal rule. Finally the data are compared with data obtained from controls (vehicle treatment), non bronchitic rabbits (vehicle treatment) and positive controls bronchitis rabbits treated with 0.153 M 2-carboxymethyl cysteine.

[6] = Acute toxicity, LD50 in mice; details: mouse, in vivo
Text: LD50 values above 1 g/kg are generally determined both after oral and intraperitoneal administration of the compounds of the invention.

[7] = Table 1, 0.153 M, oral twice a day, seven days period

COc1cc(C=CC(=O)N2CCSC2Cn2cnc3c2c(=O)n(C)c(=O)n3C)cc(CN2CCOCC2)c1O (centres unmarked) [2-LTl',3'-dimethyl-xanthin-7'-yl)methyl]-3-[(3-morpholinylmethyl-4'-hydroxy-5'-methoxy)cinnamoyi7thiazolidine]
EC50 [1]: 190 µM | activity compared with aminophylline in the resolution of bronchospasm [2]: at least four times more active than aminophylline

Cn1c(=O)c2c(ncn2CC2NC(C(=O)O)CS2)n(C)c1=O (centres unmarked) [2-[(1',3'-dimethylxanthin-7'-yl)methyl]thiazolidine-4-carboxylic acid]
duration of action compared with codeine ([3]; 20 mg/kg, dogs): favourably compares with codeine for its duration of action | inhibition at 20 mg/kg ([3]; Canis lupus familiaris, 20 mg/kg, oral, read-out: inhibition of the cough stimulus): 32% | ED50 ([4]; citric acid aerosol 7.5%, cough recorded 60 minutes after i.p. treatment, read-out: ED50): 62 mg/kg | delay of first cough stroke [4]: 213% | duration of action compared with codeine ([4]; guinea pig cough test): more favourable duration of action in comparison to codeine | Fucose (mg/ml), AUC as a 100% compared to bronchitic controls [5]: 77% | Galactose (mg/ml), AUC as a 100% compared to bronchitic controls [5]: 82% | Mucus produc-tion (ml/kg), AUC as a 100% compared to bronchitic controls [5]: 128% | Phospho-lipids (mg/ml), AUC as a 100% compared to bronchitic controls [5]: 78% | Protein (mg/ml), AUC as a 100% compared to bronchitic controls [5]: 80% | Sialic acid (mg/ml), AUC as a 100% compared to bronchitic controls [5]: 81% | Viscosity (cps), AUC as a 100% compared to bronchitic controls [5]: 55%

Cn1c(=O)c2c(ncn2CC2NCCS2)n(C)c1=O (centres unmarked) [2-[(1',3'-dimethylxanthin-7'-yl)methyl]thiazolidine]
LD50 ([6]; ip, read-out: LD 50 (i.p.)): 480 mg/kg | LD50 ([6]; oral, read-out: LD 50 (os)): 600 mg/kg | Fucose (mg/ml), AUC as a 100% compared to bronchitic controls [5]: 66% | Galactose (mg/ml), AUC as a 100% compared to bronchitic controls [5]: 5% | Mucus produc-tion (ml/kg), AUC as a 100% compared to bronchitic controls [5]: 80% | Phospho-lipids (mg/ml), AUC as a 100% compared to bronchitic controls [5]: 30% | Protein (mg/ml), AUC as a 100% compared to bronchitic controls [5]: 58% | Sialic acid (mg/ml), AUC as a 100% compared to bronchitic controls [5]: 101% | Viscosity (cps), AUC as a 100% compared to bronchitic controls [5]: 16%

N[C@@H](CSCC(=O)O)C(=O)O [S-carboxy-methyl cy steine, S-carboxymethyl cysteine, reference compound]
Fucose mg/ml, AUC as a % compared to bronchitis controls [5, 7]: 56% | Galactose mg/ml, AUC as a % compared to bronchitis controls [5, 7]: 64% | Mucus production ml/kg, AUC as a % compared to bronchitis controls [5, 7]: 97% | Phospholipids mg/ml, AUC as a % compared to bronchitis controls [5, 7]: 108% | Protein mg/ml, AUC as a % compared to bronchitis controls [5, 7]: 105% | Sialic acid mg/ml, AUC as a % compared to bronchitis controls [5, 7]: 60% | Viscosity (cps), AUC as a % compared to bronchitis controls [5, 7]: 52%

COc1ccc2c3c1O[C@H]1[C@@H](O)C=C[C@H]4[C@@H](C2)N(C)CC[C@@]341 [codeine phosphate, reference compound]
duration of activity ([3]; 8 mg/kg, oral): 2 to 4 h | inhibition at 8 mg/kg ([3]; Canis lupus familiaris, po, read-out: inhibition of the cough stimulus): 52% | ED50 [4]: ~23 mg/kg | delay of first cough stroke [4]: 170%

Cn1c(=O)c2c(ncn2CC(O)CO)n(C)c1=O (centres unmarked) [dihydroxypropyltheophylline, reference compound]
EC50 ([1]; reference, unit inferred): 76 µM
